Molecules are shown by their SMILES.

Holding throughout (format): cell-based
For data set [1], the target named is T1, ATP-dependent translocase ABCB1 (Homo sapiens, UniProt P08183). Nature of the data set: Modulation of P-gp overexpressed in human A2780 cells assessed as daunorubicin accumulation preincubated 15 mins prior to daunorubicin addition measured after 180 mins by fluorescence assay.
Data set [2] concerns the target T1, ATP-dependent translocase ABCB1. Nature of the data set: Modulation of P-gp overexpressed in human A2780 cells assessed as vinblastin accumulation at 31.6 uM by MTT assay. The following applies: a2780, 31.6 µM. For orientation: Formazan colour is commonly taken as a measure of viable cells.
For data set [3] the target is unchanged. Nature of the data set: Modulation of P-gp overexpressed in human A2780 cells assessed as daunorubicin accumulation at 31.6 uM by MTT assay. The following applies: a2780, 31.6 µM.
The target is the same in data set [4]. The data set can be described thus: Modulation of P-gp overexpressed in human A2780 cells assessed as colchicine accumulation at 31.6 uM by MTT assay. The following applies: a2780, 31.6 µM.

T1 sequence (P08183 whole entry): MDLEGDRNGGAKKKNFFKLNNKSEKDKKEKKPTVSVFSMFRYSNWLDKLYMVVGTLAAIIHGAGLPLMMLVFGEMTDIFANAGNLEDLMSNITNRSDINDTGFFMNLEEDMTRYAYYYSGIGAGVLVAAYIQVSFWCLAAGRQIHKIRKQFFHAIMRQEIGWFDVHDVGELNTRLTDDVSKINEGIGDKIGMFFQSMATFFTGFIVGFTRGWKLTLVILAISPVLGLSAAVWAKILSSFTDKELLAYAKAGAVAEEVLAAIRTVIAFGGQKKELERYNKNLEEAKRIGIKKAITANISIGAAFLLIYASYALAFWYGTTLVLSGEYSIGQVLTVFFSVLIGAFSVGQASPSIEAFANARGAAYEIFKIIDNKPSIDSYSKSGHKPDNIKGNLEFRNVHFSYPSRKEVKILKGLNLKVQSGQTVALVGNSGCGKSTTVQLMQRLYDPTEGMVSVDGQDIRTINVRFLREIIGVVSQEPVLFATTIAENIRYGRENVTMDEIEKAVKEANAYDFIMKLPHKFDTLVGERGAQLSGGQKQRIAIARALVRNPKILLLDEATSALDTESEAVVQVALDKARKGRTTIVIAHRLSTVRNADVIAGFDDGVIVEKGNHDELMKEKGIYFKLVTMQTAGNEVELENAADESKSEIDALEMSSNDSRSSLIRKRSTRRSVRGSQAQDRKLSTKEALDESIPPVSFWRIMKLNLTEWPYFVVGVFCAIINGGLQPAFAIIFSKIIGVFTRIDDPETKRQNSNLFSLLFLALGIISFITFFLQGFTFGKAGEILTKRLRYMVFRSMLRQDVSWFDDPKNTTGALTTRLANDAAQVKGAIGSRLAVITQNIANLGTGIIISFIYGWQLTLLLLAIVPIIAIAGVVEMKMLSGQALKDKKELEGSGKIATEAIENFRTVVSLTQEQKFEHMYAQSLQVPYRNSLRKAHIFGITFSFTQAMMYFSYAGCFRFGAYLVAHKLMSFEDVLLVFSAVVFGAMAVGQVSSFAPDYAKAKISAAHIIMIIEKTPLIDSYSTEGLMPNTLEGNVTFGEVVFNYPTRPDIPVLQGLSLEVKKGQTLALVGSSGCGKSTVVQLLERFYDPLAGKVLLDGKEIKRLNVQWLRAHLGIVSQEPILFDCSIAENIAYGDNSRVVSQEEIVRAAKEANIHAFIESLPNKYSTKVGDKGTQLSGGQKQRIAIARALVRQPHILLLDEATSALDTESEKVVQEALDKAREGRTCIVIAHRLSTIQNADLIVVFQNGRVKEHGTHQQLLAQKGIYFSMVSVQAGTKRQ

As for `Nc1nc(SCCc2ccccc2)nc2sc3c(c12)CCC3`, the EC50 in data set [1] turned out to be 970 nM.

Consider `CCOC(=O)CSc1nc(N)c2c3c(sc2n1)CCCC3`, for which the Activity entry in data set [2] is “Active”; in data set [3], “Active”; in data set [4], “Not Active”. Moreover, the EC50 in data set [1] is 2240 nM.

With `CCOC(=O)CSc1nc(N)c2ccccc2n1`, the EC50 in data set [1] is 3980 nM.

In the case of `CCSc1nc(N)c2c(C)c(C)sc2n1`, in data set [1], the EC50 is 4590 nM.

`Nc1nc(SCCc2ccccc2)nc2ccccc12`: the EC50 in data set [1] came out at 1100 nM.

Consider `Nc1nc(SC(C(=O)O)c2ccccc2)nc2sc3c(c12)CCCC3` (centres undefined), for which the EC50 in data set [1] is greater than 100000 nM.

In the case of `Cc1sc2nc(SCC(=O)c3ccccc3)nc(N)c2c1C`, the EC50 in data set [1] was 1310 nM.

As to `Cc1sc2nc(SC(C(=O)O)c3ccccc3)nc(N)c2c1C` (centres undefined), the EC50 in data set [1] is greater than 100000 nM.

Regarding `Nc1nc(SCC(=O)c2ccccc2)nc2sc3c(c12)CCCC3`, in data set [1], the EC50 stood at 640 nM.

In the case of `CSc1nc(N)c2c(C)c(C)sc2n1`, the EC50 in data set [1] turned out to be 1310 nM.

For the compound `Nc1nc(SCCc2ccccc2)nc2sc3c(c12)CCOC3`, the EC50 in data set [1] turned out to be 560 nM.

In the case of `CCSc1nc(N)c2c3c(sc2n1)CCCC3`, the EC50 in data set [1] is 460 nM.

For the compound `CCOC(=O)CSc1nc(N)c2c(C)c(C)sc2n1`, the Activity result in data set [2] is given as “Active”; in data set [3] it was “Active”; in data set [4], “Not Active”. In addition, the EC50 in data set [1] was 900 nM.

For `COc1cc2nc(SCCc3ccccc3)nc(N)c2cc1OC`, in data set [1], the EC50 amounted to 1520 nM.

Regarding `CCOC(=O)CSc1nc(N)c2c3c(sc2n1)COCC3`, the EC50 in data set [1] came out at 1550 nM.

In the case of `CCOC(=O)CSc1nc(N)c2c3c(sc2n1)CN(Cc1ccccc1)CC3`, the EC50 in data set [1] is 640 nM.

As for `CCOC(=O)CSc1nc(N)c2c3c(sc2n1)CCC3`, in data set [1], the EC50 is 4150 nM.

In the case of `Nc1nc(SCCc2ccccc2)nc2sc3c(c12)CCCC3`, the values for the Activity entry in data set [2], in data set [3] and in data set [4] were “Active”, “Active” and “Not Active”, respectively. Further, in data set [1], the EC50 worked out at 1020 nM.

As to `CCOC(=O)CSc1nc(N)c2cc(OC)c(OC)cc2n1`, the EC50 in data set [1] came out at 1210 nM.

`CSc1nc(N)c2c3c(sc2n1)CCCC3`: the EC50 in data set [1] is 2650 nM.

For the compound `Cc1sc2nc(SCCc3ccccc3)nc(N)c2c1C`, the results for the Activity result in data set [2], in data set [3] and in data set [4] were “Active”, “Active” and “Not Active”, respectively. The EC50 in data set [1] stood at 2250 nM.

For the compound `Nc1nc(SCCO)nc2sc3c(c12)CCCC3`, the EC50 in data set [1] amounted to 1920 nM.

As usually defined, the EC50 is the concentration needed to bring the measured effect to its halfway point.
